Test system: CSNK2A1
Assay: Doxycycline-dependent shRNA inhibition of CSNK2A1 expression in embryonic stem cell line E14, western blotting
Format: cell-based, mouse
Conditions: E14 cells, lentivirus, FIG. 24
Source text: To confirm the relationship between CSNK2A1 and OCT4 phosphorylation using a kinase inducing the phosphorylation of serine 351 of OCT4, a cell line for regulating the inhibition of CSNK2A1 expression was produced. To this end, a lentivirus doxycycline-dependently expressing shRNA of SEQ ID NO: 5 or 6 was produced and transfected into an embryonic stem cell line E14, thereby producing a cell line capable of regulating CSNK2A1 expression using doxycycline.

Row | Substance | OCT4 phosphorylation after inhibition of CSNK2A1 expression
1 | shRNA of SEQ ID NO: 5: short hairpin RNA inhibiting CSNK2A1 expression, base sequence of SEQ ID NO: 5 (CCGGCCGAGUUGCUUCUCGAUAUUUCUCGAGAAAUAUCGAGAAGCAACUCGGUUUUG) | a kinase inducing OCT4 phosphorylation is CSNK2A1
2 | shRNA of SEQ ID NO: 6: short hairpin RNA inhibiting CSNK2A1 expression, base sequence of SEQ ID NO: 6 (CCGGACAGACUAUGACAUUCGAUUUCUCGAGAAAUCGAAUGUCAUAGUCUGUUUUUUG) | a kinase inducing OCT4 phosphorylation is CSNK2A1

Reference: patent US12174174B2, “Composition comprising material for regulating OCT4 modification to repress stemness” (NATIONAL CANCER CENTER, priority 2018, dated 2024)
